Source: US7556794B2, “Pendant fatty acid imaging agents” (Molecular Insight Pharmaceuticals, Inc., priority 2002, dated 2009)

Test: Tissue distribution (radiometric analysis of excised organs) after tail vein injection of radiolabeled fatty acid analogs in rats
Format: in vivo, Sprague Dawley rats
Details: rat
Experimental: Pharmacokinetic characterization was accomplished by radiometric analysis of heart, blood, lung, kidney, liver and other tissue at various times following administration of the 99mTc-labeled fatty acid analogs to rats. […] Six new compounds were evaluated at up to four time points each (5, 15, 60, and 120 minutes) with a minimum of three animals per time point. Non-anesthetized animals were injected with 20-50 μCi in 100 μl via the tail vein and sacrificed at increasing time points post injection. The organs were excised and counted in a gamma counter. Experiments were also conducted to compare the effects of injection media using 10% ethanol, 10% bovine serum albumin and 7% ursodeoxycholic acid on distribution.

CC(CCCCCCCCCCCCc1ccc(I)cc1)CC(=O)O (centres unmarked) [BMIPP]
Percent injected dose per gram, Blood (15-min post injection, blood): 1.30 ± 0.19 Percent injected dose per gram
Percent injected dose per gram, Heart (15-min post injection, heart): 4.60 ± 0.63 Percent injected dose per gram
Percent injected dose per gram, Kidneys (15-min post injection, kidneys): 4.09 ± 0.82 Percent injected dose per gram
Percent injected dose per gram, Liver (15-min post injection, liver): 2.97 ± 0.56 Percent injected dose per gram
Percent injected dose per gram, Lung (15-min post injection, lung): 1.83 ± 0.22 Percent injected dose per gram
heart-to-blood ratio (at 15 minutes): 2.2
heart-to-blood ratio (at 60 minutes): 1.6
blood retention / clearance (in words) (blood): slow blood clearance
heart accumulation / extraction (in words) (heart): high extraction into the heart
uptake in the heart (heart, at 15 minutes): 3.49 percent per organ
uptake in the heart (heart, at 60 minutes): 1.62 percent per organ
less heart uptake with ethanol injection media than with ursodeoxycholic acid (heart, 10% ethanol versus 7% ursodeoxycholic acid injection media): ~75%
liver activity (liver, end of the 45 minute period (60 minutes)): 7.2 percent per organ
liver activity (liver, start of the 45 minute period (15 minutes)): 19.7 percent per organ
